Common to all, as to assay type: physicochemical
Data set [1] can be described thus: Free bromine in electrolyte with chloroquat or bromoquat (Example 8). Particulars: 0.84 M zinc bromide, 0.8 M quat, 1.44 M bromine; stirred 24 hrs at 35° C. Here is the method:
Chloride ions are added to the electrolyte in amounts sufficient to reduce the amount of free bromine present and increase the electrolyte conductivity during charging of the cell, Chloride ions in the electrolyte may come from zinc chloride or quaternary ammonium chloride complexing agent. Experiment 1 of Example 8: An aqueous electrolyte system was prepared having 0.84 M zinc bromide, 0.8 M chioroquat (N-methyl, N-butyl pyrrolidinium chloride) and 1.44 M bromine. After the sample was stirred for 24 hrs at 35° C., the amount of free bromine present in the electrolyte was 0.26%. Experiment 2 of Example 8: An aqueous electrolyte system was prepared having 0.84 M zinc bromide, 0.8 M bromoquat (N-methyl, N-butyl pyrrolidinium bromide) and 1.44 M bromine. After the sample was stirred for 24 hrs at 35° C., the amount of free bromine present in the electrolyte was 0.25%.

Data set [2] can be described thus: Measurement of free bromine in aqueous phase. Particulars: stirred 24 hrs, top aqueous phase, wt %. The text has this:
The forward operation of a bromine-containing battery generally involves the conversion of elemental bromine to ionic bromine. The quat/Br2 complex results from an equilibrium reaction in which the Br2 is released from the complex as the concentration of free Br2 in the aqueous electrolyte drops during battery operation. In its fully charged state, the electrolyte solution inevitably contains some degree of uncomplexed bromine. A measure of a quat's ability to complex elemental bromine is the amount of elemental bromine left in solution when the complexation reaction proceeds to equilibrium. Such bromine is referred to as “free bromine.” Measurement of free bromine in aqueous phase is set forth in Example 1.
Two slightly different methods were used to prepare the electrolyte compositions, A) one containing 0.7M quat and B) the other containing 0.8M quat. In composition A, 2.0 moles of bromine was added to an aqueous solution containing 0.5 moles of zinc bromide and 0.7 moles of the quat. The two-phase mixture was stirred for 24 hrs. and then the phases were allowed to settle. The top aqueous phase was sampled for free bromine measurement. In composition B, 1.44 moles of bromine was added to an aqueous solution containing 0.5 moles of zinc bromide, 0.4 moles of zinc chloride and 0.8 moles of the quat. The top aqueous phase obtained after stirring for 24 hrs. was used for free bromine measurement.
A 250-ml Erlenmeyer flask was charged with 50 ml of deionized water and weighed (A). A sample of the clear aqueous phase was passed through glass wool to remove any suspended organic phase and then added to the Erlenmeyer flask. The flask was weighed again (B) and the difference in weight (B-A) was noted as the weight of the sample. About 20 ml of 20% potassium iodide solution followed by about 5 ml of starch solution was added to the flask. The resulting dark mixture was titrated against 0.02N sodium thiosulfate solution. The end-point was the disappearance of purple color. Free bromine (wt %) was calculated in the following manner:
Wt % free Br2=Volume (ml) of sodium Thiosulfate×Normality of Sodium thisosulfate/Sample Weight.

Data set [3] is described as follows: Cloud point determination. Particulars: 0.7M quat in 2.5M zinc bromide water solution.
Experimental: By “cloud point” is meant the cloud point of an aqueous solution containing 0.7 M complexing agent and 2.5 M zinc bromide.
A 0.7M quaternary ammonium bromide in 2.5M Zinc Bromide water solution was prepared. • 2. The solution was transferred to a jacketed flask with a stirring bar and temperature monitor. • 3. The solution was warmed to 15° C. above the expected cloud point. If necessary, any moisture or impurities were removed by filtration. • 4. The solution was stirred, with speed adjustment to about 250 rpm, while avoiding the formation of bubbles. • 5. The solution was cooled gradually (cooling rate of about 1° C./5 min). • 6. The sample was inspected carefully for signs of cloudiness, and the temperature at which cloudiness was observed was recorded to the nearest 0.1° C.
Setting [4] is: 0.7M quat (composition A: 2.0 moles bromine, 0.5 moles zinc bromide, 0.7 moles quat).
[5] abbreviates: 0.8M quat (composition B: 1.44 moles bromine, 0.5 moles zinc bromide, 0.4 moles zinc chloride, 0.8 moles quat).

`CCCC[N+]1(C)CCCC1.[Cl-]` [chioroquat, N-methyl, N-butyl pyrrolidinium chloride]: the “amount of free bromine present in the electrolyte” value in data set [1] came to 0.26%.
In the case of `CC[N+](CC)(CC)CCOC.[Br-]` [Compound 2, (2-methoxyethyl)-triethylammonium bromide], the results for the “Free Br2” value in data set [2] (setting [4]) and in data set [2] (setting [5]) were 0.7M 0.658% and 0.8M 0.467%, respectively. The “Solubility in ZnBr2 Cloud Point” value in data set [3] is 0.7M, <-10.5 C.
With `CCC[N+](CC)(CC)CC.[Br-]` [Compound 5, triethylpropylammonium bromide], the “Free Br2” value in data set [2] (setting [4]) is given as 0.7M 0.089%; in data set [2] (0.7M quat (composition A: 2.0 moles bromine, 0.5 moles zinc bromide, 0.7 moles quat), listed as compound 5), 0.089%. For the same compound, in data set [3], the “Solubility in ZnBr2 Cloud Point” value is reported as 0.7M, 41.2 C.
`CCCC[N+]1(C)CCCC1.[Br-]` [bromoquat, N-methyl, N-butyl pyrrolidinium bromide]: the “amount of free bromine present in the electrolyte” value in data set [1] is on record as 0.25%.
Regarding `CC[N+](C)(CC)CCOC.[Br-]` [Compound 4, diethylmethyl-(2-methoxyethyl)ammonium bromide], the “Free Br2” value in data set [2] (setting [4]) turned out to be 0.7M 0.70%. Also, the “Solubility in ZnBr2 Cloud Point” value in data set [3] was 0.7M, <-10.5 C.
Consider `CCCC[N+](C)(C)CCOC.[Br-]` [Compound 1, Dimethylbutylether Quat Bromide], for which the “Free Br2” value in data set [2] (setting [4]) was found to be 0.7M 0.28%. Further, the “Solubility in ZnBr2 Cloud Point” value in data set [3] was 0.7M, 29 C.
On to `CCC[N+]1(CC)CCCCC1` [Compound 10, EthyPropyl Piperidinium Bromide], for which the “Free Br2” value amounted to 0.8M 0.026% in data set [2] (setting [5]) and 0.026% in data set [2] (0.8M quat (composition B: 1.44 moles bromine, 0.5 moles zinc bromide, 0.4 moles zinc chloride, 0.8 moles quat), listed as compound 10). In data set [3], the “Solubility in ZnBr2 Cloud Point” value is recorded as 0.7M, 45.8 C.
For `CC[N+]1(CC)CCCCC1.[Br-]` [Compound 9, Diethyl Piperidinium Bromide], the “Free Br2” value in data set [2] (setting [5]) is listed as 0.8M 0.26%; in data set [2] (0.8M quat (composition B: 1.44 moles bromine, 0.5 moles zinc bromide, 0.4 moles zinc chloride, 0.8 moles quat), listed as compound 9) it was 0.26%. The “Solubility in ZnBr2 Cloud Point” value in data set [3] was 0.7M, 11.9 C.

Source of the values: patent US20170237129A1, “Quaternary Ammonium Halides With Ether Functional Groups For Use As Battery Electrolytes” (Albemarle Corporation, priority 2014, published 2017).
